Measured values taken from patent US8343911B2, “Methods of inhibiting and treating bacterial biofilms by metal chelators” (University of Iowa Research Foundation, priority 2002, dated 2013).

Test system: P. aeruginosa biofilms
Test: Antimicrobial susceptibility of biofilms grown in rotating disk reactor (viable cell counts)
Format: cell-based
Conditions: control biofilms grown without conalbumin, FIG. 5
Description: P. aeruginosa biofilms for susceptibility tests were grown in a rotating disk reactor. Fe-unsaturated conalbumin (Sigma Chemical Co.) was added to standard biofilm medium at indicated concentrations for the duration of biofilm growth. Discs and attached bacteria were then washed 3 times in distilled water, and treated for 4 h in 1 ml of H2O2 (Fisher Scientific) or tobramycin (Eli Lilly, Indianapolis, Ind.) at indicated concentrations. The treated discs were washed 3 times, and bacteria were removed and dispersed in 2 ml sterile PBS by homogenization (Brinkman Homogenizer, model 10/35). Viable cell numbers were enumerated by plate counting.

In the case of `OO` [H2O2, reference compound], the “effect on viability of control biofilms” value (500 mM H2O2, 4 h of treatment) is reported as “minimal effects on viability”.

`NC[C@H]1O[C@H](O[C@H]2[C@H](O)[C@@H](O[C@H]3O[C@H](CO)[C@@H](O)[C@H](N)[C@H]3O)[C@H](N)C[C@@H]2N)[C@H](N)C[C@@H]1O` [tobramycin, reference compound] was tested, and the “effect on viability of control biofilms” value (1000 μg/ml tobramycin, 4 h of treatment) was “minimal effects on viability”.
